The text below walks through data of patent US7517874B2 (priority 2007, dated 2009).

Where two headings read alike, the source gives them in different places.

What is called EC50 is the midpoint of the concentration-response curve.

One assay deals with T1, rat CB2 receptor (rCB2) (Rattus norvegicus, UniProt Q9QZN9).
T1 sequence (Q9QZN9 1-360): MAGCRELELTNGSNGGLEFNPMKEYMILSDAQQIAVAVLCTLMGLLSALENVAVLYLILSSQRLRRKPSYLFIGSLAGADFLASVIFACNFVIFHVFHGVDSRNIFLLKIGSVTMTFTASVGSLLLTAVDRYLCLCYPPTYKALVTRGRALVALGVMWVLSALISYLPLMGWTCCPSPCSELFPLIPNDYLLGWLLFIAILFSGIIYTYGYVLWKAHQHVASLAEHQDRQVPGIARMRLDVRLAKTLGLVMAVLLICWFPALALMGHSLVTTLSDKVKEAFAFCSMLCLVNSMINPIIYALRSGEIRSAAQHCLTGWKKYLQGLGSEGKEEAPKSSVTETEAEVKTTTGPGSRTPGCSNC
The assay can be described thus: cell-based. The class given is cell-based. Particulars: for +/− RCB2: agonist or inverse agonist at rCB2. The essentials: (§1)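 Readout: LANCE TR-FRET cAMP, back-calculated from a concurrent standard curve and scaled between forskolin-only and forskolin + 1 μM CP55,940 wells. EC50 and intrinsic activity came from four-parameter fits.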

The target in assay [1] is human CB1 receptor (hCB1) (Homo sapiens, UniProt P21554). The assay is described as follows: cell-based. The class given is cell-based. The essentials: as §1
Chain of human CB1 receptor (hCB1) (P21554 whole entry): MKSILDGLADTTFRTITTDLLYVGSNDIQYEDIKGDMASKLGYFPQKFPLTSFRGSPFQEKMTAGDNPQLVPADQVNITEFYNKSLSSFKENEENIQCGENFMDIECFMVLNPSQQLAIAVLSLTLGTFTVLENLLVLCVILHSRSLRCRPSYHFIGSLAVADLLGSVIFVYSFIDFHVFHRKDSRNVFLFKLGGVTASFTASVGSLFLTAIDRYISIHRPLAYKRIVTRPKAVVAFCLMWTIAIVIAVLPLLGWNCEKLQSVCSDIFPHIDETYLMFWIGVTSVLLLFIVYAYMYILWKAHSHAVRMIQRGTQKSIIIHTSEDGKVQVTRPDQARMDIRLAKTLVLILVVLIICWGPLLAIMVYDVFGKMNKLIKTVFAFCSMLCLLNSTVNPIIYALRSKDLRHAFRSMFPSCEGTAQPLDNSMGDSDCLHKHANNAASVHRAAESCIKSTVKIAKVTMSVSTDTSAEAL
Setting [2] is: groups >100 nM-10 μM and >10 μM, cAMP, CHO-K1 hCB1, read-out: EC50 HCB1.

For the compound `CNC(=O)[C@@H](NC(=O)c1nc(-c2ccccc2)n2c1CN(S(=O)(=O)c1ccccc1F)CC2)C(C)(C)C` [Compound 98, (S)-N-(3,3-dimethyl-1-(methylamino)-1-oxobutan-2-yl)-7-(2-fluorophenylsulfonyl)-3-phenyl-5,6,7,8-tetrahydroimidazo[1,5-a]pyrazine-1-carboxamide], at rat CB2 receptor (rCB2), the “+/− RCB2” value is reported as “−”. Also, the EC50 in assay [1] is greater than 10000 nM.

`CNC(=O)[C@@H](NC(=O)c1nc(-c2ccccc2)n2c1CN(S(=O)(=O)c1cccc(F)c1)CC2)C(C)(C)C` [Compound 99, (S)-N-(3,3-dimethyl-1-(methylamino)-1-oxobutan-2-yl)-7-(3-fluorophenylsulfonyl)-3-phenyl-5,6,7,8-tetrahydroimidazo[1,5-a]pyrazine-1-carboxamide]: the “+/− RCB2” value on rat CB2 receptor (rCB2) is “−”. For the same compound, the EC50 in assay [1] is greater than 10000 nM.

On to `CNC(=O)[C@@H](NC(=O)c1nc(-c2ccccc2)n2c1CN(S(=O)(=O)C1CC1)CC2)C(C)(C)C` [Compound 100, (S)-7-(cyclopropylsulfonyl)-N-(3,3-dimethyl-1-(methylamino)-1-oxobutan-2-yl)-3-phenyl-5,6,7,8-tetrahydroimidazo[1,5-a]pyrazine-1-carboxamide], for which, on rat CB2 receptor (rCB2), the “+/− RCB2” value is on record as “−”. In assay [1], this compound showed an EC50 greater than 10000 nM.

As for `CC(C)(C)[C@@H](CO)NC(=O)c1nc(-c2ccccc2)n2c1CN(S(=O)(=O)c1ccc(F)cc1)CC2` [Compound 101, (S)-7-(4-fluorophenylsulfonyl)-N-(1-hydroxy-3,3-dimethylbutan-2-yl)-3-phenyl-5,6,7,8-tetrahydroimidazo[1,5-a]pyrazine-1-carboxamide], the “+/− RCB2” value on rat CB2 receptor (rCB2) is “−”. Also, the EC50 in assay [1] is greater than 10000 nM.

`CC(C)(C)[C@@H](CO)NC(=O)c1nc(-c2ccccc2)n2c1CN(S(=O)(=O)c1ccccc1)CC2` [Compound 102, (S)-N-(1-hydroxy-3,3-dimethylbutan-2-yl)-3-phenyl-7-(phenylsulfonyl)-5,6,7,8-tetrahydroimidazo[1,5-a]pyrazine-1-carboxamide]: at rat CB2 receptor (rCB2), the “+/− RCB2” value is “−”. Besides, the EC50 in assay [1] is greater than 10000 nM.

With `CC(C)(C)CNC(=O)c1nc(-c2ccccc2)n2c1CN(S(=O)(=O)c1ccc(F)cc1)CC2` [Compound 103, 7-(4-fluorophenylsulfonyl)-N-neopentyl-3-phenyl-5,6,7,8-tetrahydroimidazo[1,5-a]pyrazine-1-carboxamide], the “+/− RCB2” value on rat CB2 receptor (rCB2) is given as “−”. Moreover, the EC50 in assay [1] was greater than 10000 nM.

Regarding `CC(C)(C)CNC(=O)c1nc(-c2ccccc2)n2c1CN(S(=O)(=O)c1ccccc1)CC2` [Compound 104, N-neopentyl-3-phenyl-7-(phenylsulfonyl)-5,6,7,8-tetrahydroimidazo[1,5-a]pyrazine-1-carboxamide], the “+/− RCB2” value at rat CB2 receptor (rCB2) is recorded as “−”. Besides, the EC50 in assay [1] is greater than 10000 nM.

`O=C(c1nc(-c2ccccc2)n2c1CN(S(=O)(=O)c1ccc(F)cc1)CC2)N1CCOCC1` [Compound 105, (7-(4-fluorophenylsulfonyl)-3-phenyl-5,6,7,8-tetrahydroimidazo[1,5-a]pyrazine-1-yl)(morpholino)methanone]: the “+/− RCB2” value on rat CB2 receptor (rCB2) is reported as “−”. In addition, the EC50 in assay [1] (setting [2]) was greater than 10000 nM.

On to `CNC(=O)[C@@H](NC(=O)c1nc(-c2ccccc2)n2c1CN(S(=O)(=O)c1ccc(Cl)cc1)CC2)C(C)(C)C` [Compound 106, (S)-7-(4-chlorophenylsulfonyl)-N-(3,3-dimethyl-1-(methylamino)-1-oxobutan-2-yl)-3-phenyl-5,6,7,8-tetrahydroimidazo[1,5-a]pyrazine-1-carboxamide], for which the “+/− RCB2” value at rat CB2 receptor (rCB2) is reported as “−”. In addition, the EC50 in assay [1] was greater than 10000 nM.

With `CNC(=O)[C@H](C)NC(=O)c1nc(-c2ccccc2)n2c1CN(S(=O)(=O)c1ccc(F)cc1)CC2` [Compound 110, (S)-7-(4-fluorophenylsulfonyl)-N-(1-(methylamino)-1-oxopropan-2-yl)-3-phenyl-5,6,7,8-tetrahydroimidazo[1,5-a]pyrazine-1-carboxamide], the “+/− RCB2” value on rat CB2 receptor (rCB2) was “+”. This compound registered an EC50 in assay [1] greater than 10000 nM.

For `CCS(=O)(=O)N1CCn2c(-c3ccccc3)nc(C(=O)N[C@H](C)C3CCCCC3)c2C1` [Compound 111, (R)-N-(1-cyclohexylethyl)-7-(ethylsulfonyl)-3-phenyl-5,6,7,8-tetrahydroimidazo[1,5-a]pyrazine-1-carboxamide], the values for the EC50 (on rat CB2 receptor (rCB2); in assay [1]) were greater than 10 µM and greater than 10000 nM, respectively.

In the case of `CCS(=O)(=O)N1CCn2c(-c3ccccc3)nc(C(=O)NC3C4(C)CCC(C4)C3(C)C)c2C1` (centres unmarked) [Compound 112, 7-(ethylsulfonyl)-3-phenyl-N-(1,3,3-trimethylbicyclo[2.2.1]heptan-2-yl)-5,6,7,8-tetrahydroimidazo[1,5-a]pyrazine-1-carboxamide], the “+/− RCB2” value at rat CB2 receptor (rCB2) is “−”. Also, the EC50 in assay [1] is greater than 10000 nM.

Turning to `CCS(=O)(=O)N1CCn2c(-c3ccccc3)nc(C(=O)N[C@@H](C)c3ccccc3)c2C1` [Compound 113, (S)-7-(ethylsulfonyl)-3-phenyl-N-(1-phenylethyl)-5,6,7,8-tetrahydroimidazo[1,5-a]pyrazine-1-carboxamide], at rat CB2 receptor (rCB2), the “+/− RCB2” value is “−”. The compound further yielded an EC50 in assay [1] greater than 10000 nM.

Turning to `CCS(=O)(=O)N1CCn2c(-c3ccccc3)nc(C(=O)Nc3ccccc3)c2C1` [Compound 114, 7-(ethylsulfonyl)-N,3-diphenyl-5,6,7,8-tetrahydroimidazo[1,5-a]pyrazine-1-carboxamide], on rat CB2 receptor (rCB2), the “+/− RCB2” value was “−”. The EC50 in assay [1] (setting [2]) was greater than 10000 nM.

With `CCS(=O)(=O)N1CCn2c(-c3ccccc3)nc(C(=O)NN3CCCCC3)c2C1` [Compound 115, 7-(ethylsulfonyl)-3-phenyl-N-(piperidin-1-yl)-5,6,7,8-tetrahydroimidazo[1,5-a]pyrazine-1-carboxamide], the “+/− RCB2” value on rat CB2 receptor (rCB2) is reported as “−”. Further, in assay [1] (setting [2]), the concentration giving a half-maximal response (EC50) was greater than 10000 nM.

Consider `CCS(=O)(=O)N1CCn2c(-c3ccc(Cl)cc3)nc(C(=O)NCCC(C)C)c2C1` [Compound 116, 3-(4-chlorophenyl)-7-(ethylsulfonyl)-N-isopentyl-5,6,7,8-tetrahydroimidazo[1,5-a]pyrazine-1-carboxamide], for which, at rat CB2 receptor (rCB2), the “+/− RCB2” value is listed as “−”. This compound also had an EC50 in assay [1] greater than 10000 nM.

For `CCS(=O)(=O)N1CCn2c(-c3ccccc3)nc(C(=O)NCC3CCOCC3)c2C1` [Compound 117, 7-(ethylsulfonyl)-3-phenyl-N-((tetrahydro-2H-pyran-4-yl)methyl)-5,6,7,8-tetrahydroimidazo[1,5-a]pyrazine-1-carboxamide], the “+/− RCB2” value on rat CB2 receptor (rCB2) was “−”. In addition, the EC50 in assay [1] (setting [2]) is greater than 10000 nM.

As for `CCS(=O)(=O)N1CCn2c(-c3ccccc3)nc(C(=O)NC3CCCCC3)c2C1` [Compound 118, N-cyclohexyl-7-(ethylsulfonyl)-3-phenyl-5,6,7,8-tetrahydroimidazo[1,5-a]pyrazine-1-carboxamide], the “+/− RCB2” value on rat CB2 receptor (rCB2) is listed as “−”. Also, the EC50 in assay [1] was greater than 10000 nM.

As for `CC12CCC(C1)C(C)(C)C2NC(=O)c1nc(-c2ccccc2)n2c1CN(C(=O)C1CC1)CC2` (centres unmarked) [Compound 119, 7-(cyclopropanecarbonyl)-3-phenyl-N-(1,3,3-trimethyl-bicyclo [2.2.1]heptan-2-yl)-5,6,7,8-tetrahydroimidazo[1,5-a]pyrazine-1-carboxamide], at rat CB2 receptor (rCB2), the “+/− RCB2” value was “−”. In addition, the concentration giving a half-maximal response (EC50) in assay [1] is greater than 10000 nM.
